Data from ChEMBL document CHEMBL5543172, “Novel Isoalantolactone-Based Derivatives as Potent NLRP3 Inflammasome Inhibitors: Design, Synthesis, and Biological Characterization” (J Med Chem, 2024).
Activity calls are given as the source filed them.

Experiments:
BMDM [1] = test: Cytotoxicity against mouse BMDM cells at 0.25 to 2 uM measured after 24 hrs by CCK-8 method; format: toxicity, cell-based; conditions: dose 0.25-2 µM
[2] = target: Sodium-dependent noradrenaline transporter (Homo sapiens) (UniProt P23975); test: Inhibition of NET (unknown origin) at 1 uM relative to control
[3] = Drug distribution in C57BL/6 mouse plasma at 30 mg/kg, ip measured after 24 hrs by LC-MS/MS analysis; format: ADME, organism-based
THP-1 [4] = test: Cytotoxicity against human THP-1 cells at 4 uM measured after 24 hrs by CCK-8 method; format: functional, cell-based
Cytochrome P450 2E1 = Cytochrome P450 2E1 (Homo sapiens, UniProt P05181); test: Inhibition of CYP2E1 in human liver microsomes using chlorzoxazone as substrate preincubated for 5 mins followed by NADPH addition and measured after 30 to 60 mins by LC-MS/MS analysis; format: ADME, Microsome
[5] = target: Histamine H1 receptor (Homo sapiens) (UniProt P35367); test: Inhibition of Histamine H1 receptor (unknown origin) at 1 uM relative to control
[6] = target: P2X purinoceptor 3 (Homo sapiens) (UniProt P56373); test: Activation of P2X3 (unknown origin) at 1 uM relative to control
THP-1 [7] = test: Cytotoxicity against human THP-1 cells at 0.25 to 2 uM measured after 24 hrs by CCK-8 method; format: functional, cell-based; conditions: dose 0.25-2 µM
[8] = target: Voltage-dependent N-type calcium channel subunit alpha-1B (Homo sapiens) (UniProt Q00975); test: Inhibition of Cav2.2 (unknown origin) at 1 uM relative to control
[9] = target: 5-hydroxytryptamine receptor 7 (Homo sapiens) (UniProt P34969); test: Inhibition of 5-HT7 receptor (unknown origin) at 1 uM relative to control
Mus musculus [10] = test: Anti-colitis activity against DSS-induced ulcerative colitis C57BL/6 mouse model assessed as alleviation of goblet cell depletion at 15 to 30 mg/kg, ip administered daily and measured after 10 days by H and E staining based analysis; format: functional, organism-based; conditions: dose 15-30 mg/kg, time 10.0 day
THP-1 [11] = test: Binding affinity to NLRP3deltaLRR mutant in PMA- differentiated human THP-1 cells assessed as increase in thermal stability of protein at 1 uM pretreated with LPS for 3 hrs followed by compound addition at 45 to 63 degC for 2 mins by CETSA analysis; format: cell-based
Mus musculus [12] = test: Anti-colitis activity against DSS-induced ulcerative colitis C57BL/6 mouse model assessed as reduction in IL-1 beta level at 15 to 30 mg/kg, ip by ELISA method; format: functional, organism-based; conditions: dose 15-30 mg/kg
BMDM [13] = test: Inhibition of pyroptosis in LPS/nigericin induced […] cells assessed as reduction in red fluorescence production preincubated with LPS for 3 hrs followed by compound addition for 40 mins and further stimulated with nigericin for 40 mins by PI staining based inverted microscopy based analysis; format: functional, cell-based; conditions: dose 0.25-1 µM, time 80.0 min
[14] = target: NACHT, LRR and PYD domains-containing protein 3 (Mus musculus) (UniProt Q8R4B8); test: Inhibition of NLRP3 inflammasome activation in LPS/Nigericin induced mouse BMDM cells assessed as suppression of caspase-1 secretion preincubated with LPS for 3 hrs followed by compound addition for 40 mins and further stimulated with nigericin for 40 mins by Western blot analysis; format: cell-based; conditions: dose 0.25-1 µM, time 80.0 min
Cytochrome P450 2D6 = Cytochrome P450 2D6 (Homo sapiens, UniProt P10635); test: Inhibition of CYP2D6 in human liver microsomes using dextromethorphan as substrate preincubated for 5 mins followed by NADPH addition and measured after 30 to 60 mins by LC-MS/MS analysis; format: ADME, Microsome
[15] = target: Histamine H1 receptor (Homo sapiens) (UniProt P35367); test: Activation of Histamine H1 receptor (unknown origin) at 1 uM relative to control
[16] = Drug distribution in C57BL/6 mouse colon at 30 mg/kg, ip measured after 24 hrs by LC-MS/MS analysis; format: ADME, organism-based; conditions: read-out: Drug uptake
[17] = target: Mu-type opioid receptor (Homo sapiens) (UniProt P35372); test: Inhibition of mu opioid receptor (unknown origin) at 1 uM relative to control
Homo sapiens = organism: Homo sapiens; test: Activation of GlyRalpha1beta (unknown origin) at 1 uM relative to control
BMDM [18] = test: Cytotoxicity against mouse BMDM cells at 4 uM measured after 24 hrs by CCK-8 method; format: toxicity, cell-based
[19] = target: Alpha-1A adrenergic receptor (Homo sapiens) (UniProt P35348); test: Activation of alpha 1A adrenergic receptor (unknown origin) at 1 uM relative to control
[20] = target: Mu-type opioid receptor (Homo sapiens) (UniProt P35372); test: Activation of mu opioid receptor (unknown origin) at 1 uM relative to control
[21] = target: 3',5'-cyclic-AMP phosphodiesterase 4D (Homo sapiens) (UniProt Q08499); test: Activation of PDE4D2 (unknown origin) at 1 uM relative to control
Mus musculus [22] = test: Anti-colitis activity against DSS-induced ulcerative colitis C57BL/6 mouse model assessed as reduction in colon length shortening at 15 to 30 mg/kg, ip administered daily and measured upto 10 days; format: functional, organism-based; conditions: dose 15-30 mg/kg, time <= 10.0 day
HEK293T = test: Inhibition of HA-NLRP3 C279A mutant/FLAG tagged NEK7 interaction (unknown origin) transfected in HEK293T cells at 1 uM incubated for 24 hrs by Western blot analysis; format: cell-based; conditions: Homo sapiens
Mus musculus [23] = test: Anti-colitis activity against DSS-induced ulcerative colitis C57BL/6 mouse model assessed as alleviation of grave ulcer formation in colon at 15 to 30 mg/kg, ip administered daily and measured after 10 days by H and E staining based analysis; format: functional, organism-based; conditions: dose 15-30 mg/kg, time 10.0 day
[24] = target: Adenosine receptor A2a (Homo sapiens) (UniProt P29274); test: Activation of adenosine A2A receptor (unknown origin) at 1 uM relative to control
Cytochrome P450 2C9 = Cytochrome P450 2C9 (Homo sapiens, UniProt P11712); test: Inhibition of CYP2C9 in human liver microsomes using tolbutamide as substrate preincubated for 5 mins followed by NADPH addition and measured after 30 to 60 mins by LC-MS/MS analysis; format: ADME, Microsome
Cytochrome P450 3A4 = Cytochrome P450 3A4 (Homo sapiens, UniProt P08684); test: Inhibition of CYP3A4 in human liver microsomes using midazolam as substrate preincubated for 5 mins followed by NADPH addition and measured after 30 to 60 mins by LC-MS/MS analysis; format: ADME, Microsome
[25] = target: NACHT, LRR and PYD domains-containing protein 3 (Mus musculus) (UniProt Q8R4B8); test: Inhibition of NLRP3 inflammasome activation in LPS/Nigericin induced mouse BMDM cells assessed as effect on ASC expression at 0.25 to 1 uM preincubated with LPS for 3 hrs followed by compound addition for 40 mins and further stimulated with nigericin for 40 mins by Western blot analysis; format: cell-based; conditions: dose 0.25-1 µM, time 80.0 min
Mus musculus [26] = test: Anti-colitis activity against DSS-induced ulcerative colitis C57BL/6 mouse model assessed as reduction in DAI score at 15 to 30 mg/kg, ip administered daily and measured upto 10 days; format: functional, organism-based; conditions: dose 15-30 mg/kg, time <= 10.0 day
[27] = target: Alpha-1A adrenergic receptor (Homo sapiens) (UniProt P35348); test: Inhibition of alpha 1A adrenergic receptor (unknown origin) at 1 uM relative to control
THP-1 [28] = test: Inhibition of pyroptosis in LPS/nigericin induced PMA-differentiated human THP-1 cells assessed as reduction in red fluorescence production preincubated with LPS for 3 hrs followed by compound addition for 40 mins and further stimulated with nigericin for 40 mins by PI staining based inverted microscopy based analysis; format: functional, cell-based; conditions: dose 0.25-1 µM, time 80.0 min

NACHT, LRR and PYD domains-containing protein 3 (Mus musculus), sequence (Q8R4B8 whole entry, the tested form may be a part): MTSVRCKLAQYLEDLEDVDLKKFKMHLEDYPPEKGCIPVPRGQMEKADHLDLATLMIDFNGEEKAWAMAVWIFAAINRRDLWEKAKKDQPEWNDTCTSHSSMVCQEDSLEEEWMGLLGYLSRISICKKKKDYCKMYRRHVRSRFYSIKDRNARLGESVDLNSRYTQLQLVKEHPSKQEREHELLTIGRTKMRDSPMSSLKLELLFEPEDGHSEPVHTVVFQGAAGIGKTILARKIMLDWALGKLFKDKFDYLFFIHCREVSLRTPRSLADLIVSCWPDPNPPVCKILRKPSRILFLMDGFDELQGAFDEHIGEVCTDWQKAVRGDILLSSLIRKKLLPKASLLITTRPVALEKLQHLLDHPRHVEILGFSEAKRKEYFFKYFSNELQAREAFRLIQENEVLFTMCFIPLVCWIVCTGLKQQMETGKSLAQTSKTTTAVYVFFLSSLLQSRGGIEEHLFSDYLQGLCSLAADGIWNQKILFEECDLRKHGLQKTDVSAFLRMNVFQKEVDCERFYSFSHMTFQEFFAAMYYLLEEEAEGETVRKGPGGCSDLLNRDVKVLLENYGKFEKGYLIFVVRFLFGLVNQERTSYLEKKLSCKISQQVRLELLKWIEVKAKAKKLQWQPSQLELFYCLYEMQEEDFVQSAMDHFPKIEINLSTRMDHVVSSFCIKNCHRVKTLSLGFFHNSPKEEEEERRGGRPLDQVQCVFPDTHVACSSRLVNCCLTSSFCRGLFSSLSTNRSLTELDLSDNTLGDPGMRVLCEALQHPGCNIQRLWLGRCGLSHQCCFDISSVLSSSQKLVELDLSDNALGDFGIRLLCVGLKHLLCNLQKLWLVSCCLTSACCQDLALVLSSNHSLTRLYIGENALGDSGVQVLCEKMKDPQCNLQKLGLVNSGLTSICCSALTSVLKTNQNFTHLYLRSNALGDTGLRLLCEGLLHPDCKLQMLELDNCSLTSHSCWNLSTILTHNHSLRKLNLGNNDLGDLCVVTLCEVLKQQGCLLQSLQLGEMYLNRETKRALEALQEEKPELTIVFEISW
Mu-type opioid receptor (Homo sapiens), sequence (P35372 whole entry): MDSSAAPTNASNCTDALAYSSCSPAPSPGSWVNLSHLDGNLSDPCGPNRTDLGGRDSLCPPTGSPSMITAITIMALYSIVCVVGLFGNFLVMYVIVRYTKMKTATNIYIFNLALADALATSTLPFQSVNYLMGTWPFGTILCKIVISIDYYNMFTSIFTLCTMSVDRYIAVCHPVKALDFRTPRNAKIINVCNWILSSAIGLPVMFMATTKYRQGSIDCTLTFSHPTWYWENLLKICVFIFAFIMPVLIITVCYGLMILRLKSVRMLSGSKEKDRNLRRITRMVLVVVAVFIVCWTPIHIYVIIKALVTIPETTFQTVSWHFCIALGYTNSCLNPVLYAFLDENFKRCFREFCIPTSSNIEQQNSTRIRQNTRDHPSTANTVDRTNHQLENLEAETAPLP
Alpha-1A adrenergic receptor (Homo sapiens), sequence (P35348 whole entry): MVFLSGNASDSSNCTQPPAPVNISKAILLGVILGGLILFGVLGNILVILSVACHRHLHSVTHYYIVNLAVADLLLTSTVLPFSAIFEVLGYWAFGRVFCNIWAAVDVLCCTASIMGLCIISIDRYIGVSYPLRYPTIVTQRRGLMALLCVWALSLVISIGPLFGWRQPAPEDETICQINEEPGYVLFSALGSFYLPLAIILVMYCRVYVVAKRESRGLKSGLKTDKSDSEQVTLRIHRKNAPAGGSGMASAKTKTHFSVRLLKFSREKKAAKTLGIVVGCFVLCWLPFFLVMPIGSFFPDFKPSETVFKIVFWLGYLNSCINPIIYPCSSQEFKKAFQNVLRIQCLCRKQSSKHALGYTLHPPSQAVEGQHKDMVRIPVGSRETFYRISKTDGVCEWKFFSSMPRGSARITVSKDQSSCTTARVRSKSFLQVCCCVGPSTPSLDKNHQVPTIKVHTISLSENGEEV
Histamine H1 receptor (Homo sapiens), sequence (P35367 whole entry): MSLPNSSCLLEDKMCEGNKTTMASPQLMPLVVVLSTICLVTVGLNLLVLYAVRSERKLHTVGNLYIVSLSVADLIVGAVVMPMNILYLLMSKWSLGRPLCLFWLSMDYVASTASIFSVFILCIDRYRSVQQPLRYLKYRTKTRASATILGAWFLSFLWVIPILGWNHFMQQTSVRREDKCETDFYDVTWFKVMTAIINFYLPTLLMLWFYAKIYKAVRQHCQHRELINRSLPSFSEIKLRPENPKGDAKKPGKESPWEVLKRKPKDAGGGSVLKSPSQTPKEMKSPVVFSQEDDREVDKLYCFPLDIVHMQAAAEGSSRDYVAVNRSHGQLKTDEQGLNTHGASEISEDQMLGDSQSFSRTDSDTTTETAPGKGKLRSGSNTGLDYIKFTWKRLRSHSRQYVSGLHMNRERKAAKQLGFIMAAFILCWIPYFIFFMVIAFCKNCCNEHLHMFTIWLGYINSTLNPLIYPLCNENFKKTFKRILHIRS
Adenosine receptor A2a (Homo sapiens), sequence (P29274 whole entry): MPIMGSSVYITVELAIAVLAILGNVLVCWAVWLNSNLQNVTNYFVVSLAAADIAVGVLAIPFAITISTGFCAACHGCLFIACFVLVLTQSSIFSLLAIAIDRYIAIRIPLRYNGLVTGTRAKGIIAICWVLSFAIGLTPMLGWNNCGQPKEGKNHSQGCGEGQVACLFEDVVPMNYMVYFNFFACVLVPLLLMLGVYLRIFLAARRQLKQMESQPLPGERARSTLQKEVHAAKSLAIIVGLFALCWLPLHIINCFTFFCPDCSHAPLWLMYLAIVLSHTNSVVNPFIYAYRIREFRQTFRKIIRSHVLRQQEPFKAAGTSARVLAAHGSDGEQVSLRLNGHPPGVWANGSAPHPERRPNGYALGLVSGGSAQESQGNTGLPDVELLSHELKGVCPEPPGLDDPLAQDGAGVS
Sodium-dependent noradrenaline transporter (Homo sapiens), sequence (P23975 whole entry): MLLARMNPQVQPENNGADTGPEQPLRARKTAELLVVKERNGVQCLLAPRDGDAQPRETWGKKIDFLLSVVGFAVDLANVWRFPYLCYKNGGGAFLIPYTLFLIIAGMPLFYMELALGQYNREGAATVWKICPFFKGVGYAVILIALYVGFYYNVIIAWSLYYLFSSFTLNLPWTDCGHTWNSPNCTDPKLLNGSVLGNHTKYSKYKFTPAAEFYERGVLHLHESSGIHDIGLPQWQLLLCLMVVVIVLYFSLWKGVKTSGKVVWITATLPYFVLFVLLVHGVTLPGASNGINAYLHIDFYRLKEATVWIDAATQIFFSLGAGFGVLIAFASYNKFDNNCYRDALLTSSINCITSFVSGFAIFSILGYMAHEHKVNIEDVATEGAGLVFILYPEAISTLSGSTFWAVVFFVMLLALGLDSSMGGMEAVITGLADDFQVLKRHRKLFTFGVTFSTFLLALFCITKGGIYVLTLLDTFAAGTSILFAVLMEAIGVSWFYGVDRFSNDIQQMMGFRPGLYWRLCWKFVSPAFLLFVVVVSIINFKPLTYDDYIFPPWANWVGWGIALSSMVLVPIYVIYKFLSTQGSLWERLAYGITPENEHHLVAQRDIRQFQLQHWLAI
Cytochrome P450 2C9, sequence (P11712 whole entry): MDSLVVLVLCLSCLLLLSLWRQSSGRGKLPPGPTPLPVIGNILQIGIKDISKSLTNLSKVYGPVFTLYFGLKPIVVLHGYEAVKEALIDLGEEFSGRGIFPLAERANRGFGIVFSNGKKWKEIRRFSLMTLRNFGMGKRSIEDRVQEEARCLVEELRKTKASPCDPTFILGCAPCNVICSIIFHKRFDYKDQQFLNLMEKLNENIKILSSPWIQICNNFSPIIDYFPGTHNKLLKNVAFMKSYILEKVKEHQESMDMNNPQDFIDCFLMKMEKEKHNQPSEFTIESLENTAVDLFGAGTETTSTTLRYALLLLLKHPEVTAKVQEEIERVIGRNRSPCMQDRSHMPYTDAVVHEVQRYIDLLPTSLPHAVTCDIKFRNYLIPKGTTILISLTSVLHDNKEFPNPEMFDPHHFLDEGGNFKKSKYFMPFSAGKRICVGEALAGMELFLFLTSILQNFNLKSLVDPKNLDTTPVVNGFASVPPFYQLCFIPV
5-hydroxytryptamine receptor 7 (Homo sapiens), sequence (P34969 whole entry): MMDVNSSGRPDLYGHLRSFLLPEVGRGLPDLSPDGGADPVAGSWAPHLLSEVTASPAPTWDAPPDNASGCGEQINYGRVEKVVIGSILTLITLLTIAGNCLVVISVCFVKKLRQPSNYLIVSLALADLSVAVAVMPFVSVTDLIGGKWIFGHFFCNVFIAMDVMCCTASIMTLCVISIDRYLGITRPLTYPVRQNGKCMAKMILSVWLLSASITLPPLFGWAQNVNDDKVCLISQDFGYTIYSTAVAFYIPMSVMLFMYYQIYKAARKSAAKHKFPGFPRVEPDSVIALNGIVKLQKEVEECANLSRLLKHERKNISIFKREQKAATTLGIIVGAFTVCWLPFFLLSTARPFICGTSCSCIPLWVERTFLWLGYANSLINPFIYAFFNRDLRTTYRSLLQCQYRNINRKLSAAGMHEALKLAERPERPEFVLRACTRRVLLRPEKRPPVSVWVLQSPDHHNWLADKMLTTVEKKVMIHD
Cytochrome P450 2D6, sequence (P10635 whole entry): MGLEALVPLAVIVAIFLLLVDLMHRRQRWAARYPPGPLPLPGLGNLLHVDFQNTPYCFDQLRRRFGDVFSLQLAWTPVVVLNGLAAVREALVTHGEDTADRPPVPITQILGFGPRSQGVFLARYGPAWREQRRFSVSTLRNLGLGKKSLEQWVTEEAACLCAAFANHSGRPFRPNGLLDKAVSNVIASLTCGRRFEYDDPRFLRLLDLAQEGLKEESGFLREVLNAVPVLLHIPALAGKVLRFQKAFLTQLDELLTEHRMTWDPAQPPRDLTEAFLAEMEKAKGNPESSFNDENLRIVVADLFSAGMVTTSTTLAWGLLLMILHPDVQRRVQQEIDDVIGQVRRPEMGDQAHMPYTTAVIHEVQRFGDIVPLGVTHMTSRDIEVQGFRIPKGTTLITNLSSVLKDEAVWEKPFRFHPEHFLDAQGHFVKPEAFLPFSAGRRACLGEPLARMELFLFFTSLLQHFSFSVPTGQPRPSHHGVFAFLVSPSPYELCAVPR

C=C1C(=O)O[C@@H]2C[C@@]3(C)CC[C@@H](OC(=O)c4cnc(Cl)cc4Cl)C(=C)[C@@H]3C[C@H]12
5.8 µM: IC50 (Cytochrome P450 2C9)
< 50%: inhibition [2] | inhibition [5] | Activity [6] | inhibition [8] | inhibition [9] | Activity [15] | inhibition [17] | Activity (Homo sapiens) | Activity [19] | Activity [20] | Activity [21] | Activity [24] | inhibition [27]
81.3 ng/g: concentration at 24 h [16]
inactive: Activity (THP-1 [7]) | inhibition (HEK293T) | inhibition [25]
active: Activity (THP-1 [4]) | Activity (Mus musculus [10]) | Activity (THP-1 [11]) | Activity (Mus musculus [12]) | inhibition (BMDM [13]) | inhibition [14] Dose-Dependent Effect | Activity (Mus musculus [22]) | Activity (Mus musculus [23]) | Activity (Mus musculus [26]) | inhibition (THP-1 [28])
> 100 µM: IC50 (Cytochrome P450 2E1) | IC50 (Cytochrome P450 2D6) | IC50 (Cytochrome P450 3A4)
1.65 ng/mL: concentration at 24 h [3]
Non-Toxic: Activity (BMDM [1])
Toxic: Activity (BMDM [18])
